Structures are written as SMILES. The source made the active and inactive calls.

This is an account of results in ChEMBL document CHEMBL1201862, “PubChem BioAssay data set” (2004).

The nature of test [1]: insulin promoter down-regulators in MIN6 cells, imaging, high-content screening, mouse beta cells (AID 1628). It counts as functional.
A short description of test [2]: cytotoxicity in MIN6 insulinoma cells, dose response, cytotoxicity control, cell-based, mouse insulinoma (AID 2122).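 Note: confirmatory high-throughput counterscreen run to flag cytotoxic compounds; mouse MIN-6 beta cells carrying an insulin promoter eGFP reporter.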 Format: functional.
Another test concerns CHO-K1. Nature of the test: Counterscreen for antagonists of the orexin 1 receptor (OX1R; HCRTR1): Homogeneous time resolved fluorescence (HTRF)-based cell-based dose response assay to identify antagonists of the parental CHO-K1 cell line. [Related pubchem assays (depositor defined):AID434989, AID435008, AID463079, AID485270, AID492963, AID492964, AID492965, AID493232, AID504699, AID504701]. Format: functional. As to conditions: Cricetulus griseus. For orientation: A counterscreen serves to expose hits that act by an unwanted route or on another target.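 Note: potency for inhibition of ATP-stimulated IP1 production as antagonists.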

A short description of test [3]: Counterscreen for antagonists of the orexin 1 receptor (OX1R; HCRTR1): Fluorescence-based cell-based high throughput dose response assay to identify antagonists of the parental CHO cell line. [Related pubchem assays (depositor defined):AID434989, AID435008, AID463079, AID485270, AID492963, AID492964, AID492965, AID493232, AID504699, AID504701]. It counts as functional.

For test [4], the target named is T1, Orexin/Hypocretin receptor type 1 (Homo sapiens, UniProt O43613).
T1 sequence (O43613 whole entry): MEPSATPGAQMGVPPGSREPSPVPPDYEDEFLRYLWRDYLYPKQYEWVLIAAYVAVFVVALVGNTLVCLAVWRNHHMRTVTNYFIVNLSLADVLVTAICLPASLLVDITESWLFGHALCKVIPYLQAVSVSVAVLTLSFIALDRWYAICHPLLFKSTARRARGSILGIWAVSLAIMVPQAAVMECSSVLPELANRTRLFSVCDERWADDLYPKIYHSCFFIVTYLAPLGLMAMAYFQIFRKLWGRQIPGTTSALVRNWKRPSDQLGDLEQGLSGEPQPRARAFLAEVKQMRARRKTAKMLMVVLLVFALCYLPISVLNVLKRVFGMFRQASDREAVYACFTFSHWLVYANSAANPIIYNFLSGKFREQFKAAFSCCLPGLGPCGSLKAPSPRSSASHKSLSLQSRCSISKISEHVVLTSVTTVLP
Nature of the test: Homogeneous Time Resolved Fluorescence (HTRF)-based cell-based high throughput dose response assay for antagonists of the orexin 1 receptor (OX1R; HCRTR1). [Related pubchem assays (depositor defined):AID434989, AID435008, AID463079, AID485270, AID492963, AID492964, AID492965, AID493232, AID504717, AID504718]. It counts as functional. (Time-resolved FRET reads energy transfer from a long-lived donor to a nearby acceptor.)

The target in test [5] is T1, Orexin/Hypocretin receptor type 1. Description: Fluorescence-based cell-based high throughput dose response assay for antagonists of the orexin 1 receptor (OX1R; HCRTR1). [Related pubchem assays (depositor defined):AID434989, AID435008, AID463079, AID485270, AID492963, AID492964, AID492965, AID493232, AID504717, AID504718]. Format: functional.
The next test addresses Exodeoxyribonuclease V (Escherichia coli (strain K12), UniProt P04993+P07648+P08394). Description: E. coli RecBCD inhibitors, dose response, counter-screen for AddAB inhibitor project, absorbance, V66 E. coli, mutant T4 phage (AID 492957). It counts as functional, cell-based, Escherichia coli str. K-12 substr. MG1655.
A short description of test [6]: Luminescence Cell-Based Dose Retest to Confirm Inhibitors of Cancer Stem Cells. [Related pubchem assays (depositor defined):AID2717, AID2721]. It counts as functional. As to conditions: Homo sapiens.
Another test concerns the target Nonstructural protein 1 (Influenza A virus, UniProt Q194T2). It counts as functional, Influenza A virus (A/California/07/2009(H1N1)).
Test [7] is described as follows: Counterscreen for AddAB inhibitors: absorbance-based bacterial cell-based high throughput dose response assay for inhibitors of bacterial viability. [Related pubchem assays (depositor defined):AID435030, AID449728, AID449731, AID488942, AID488955, AID488956]. Format: functional.
A further test has as its system BJ. Nature of the test: cytotoxicity toward Ras-transformed BJeLR fibroblasts, dose response, cell-based, alamar blue fluorescence, cherrypicked samples (AID 2631).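 Note: confirmatory dose-response assay in RAS-dependent BJ fibroblasts engineered with TERT, LT and ST, with cytotoxicity read by fluorescence.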 Format: functional. As to conditions: Homo sapiens. For orientation: The colour change of resazurin is a common sign of viable cells or microbes.
The next test concerns INS1. Description: beta cell apoptosis inhibitors, cytokine rescue, dose response, luminescence, retest (AID 449756).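 Note: cell death triggered by IL-1 beta plus TNF-alpha plus IFN-gamma mixture; protective hits raise ATP signal compared with cytokine alone wells.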 Format: functional, cell-based. As to conditions: Rattus norvegicus.
The next test has as its target T2, Hexokinase HKDC1 (Homo sapiens, UniProt Q2TB90).
T2 sequence (Q2TB90 whole entry): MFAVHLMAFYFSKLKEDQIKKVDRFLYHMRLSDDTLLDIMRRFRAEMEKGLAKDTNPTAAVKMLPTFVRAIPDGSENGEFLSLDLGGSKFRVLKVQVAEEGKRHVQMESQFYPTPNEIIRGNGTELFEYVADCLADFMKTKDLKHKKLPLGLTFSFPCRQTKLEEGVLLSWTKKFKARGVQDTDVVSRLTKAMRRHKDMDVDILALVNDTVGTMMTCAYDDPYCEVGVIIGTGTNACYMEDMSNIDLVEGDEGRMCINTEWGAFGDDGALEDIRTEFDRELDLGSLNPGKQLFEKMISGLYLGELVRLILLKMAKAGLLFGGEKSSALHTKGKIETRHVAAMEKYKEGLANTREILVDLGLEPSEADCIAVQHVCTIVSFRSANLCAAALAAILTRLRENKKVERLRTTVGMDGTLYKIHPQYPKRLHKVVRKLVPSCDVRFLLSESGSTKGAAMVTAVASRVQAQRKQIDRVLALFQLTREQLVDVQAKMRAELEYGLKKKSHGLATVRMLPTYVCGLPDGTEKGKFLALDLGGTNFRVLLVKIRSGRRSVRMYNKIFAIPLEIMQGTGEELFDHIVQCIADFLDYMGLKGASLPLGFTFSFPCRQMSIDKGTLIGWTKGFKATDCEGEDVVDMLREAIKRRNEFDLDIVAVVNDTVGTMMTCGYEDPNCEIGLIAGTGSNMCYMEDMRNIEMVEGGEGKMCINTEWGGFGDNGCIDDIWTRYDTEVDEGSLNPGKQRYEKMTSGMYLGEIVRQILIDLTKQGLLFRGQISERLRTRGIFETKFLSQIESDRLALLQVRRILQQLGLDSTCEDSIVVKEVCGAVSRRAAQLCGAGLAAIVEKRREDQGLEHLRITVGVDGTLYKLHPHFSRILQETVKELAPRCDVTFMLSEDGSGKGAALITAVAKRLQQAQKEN
Nature of the test: HKDC1 hexokinase activators, dose response, biochemical, W721R variant (AID 504730). It counts as functional.

A further test deals with Beta-galactosidase (Escherichia coli, UniProt Q8VNN2). Description: beta-galactosidase enzyme inhibitors and activators, dose response, artefact control for CCR6 antagonist project, biochemical, E. coli enzyme, set 3 (AID 504712). It counts as functional.
Another test concerns the target Apelin receptor (Homo sapiens, UniProt P35414). Nature of the test: APJ beta-arrestin recruitment antagonism, SAR follow-up, selectivity assay for CCR6 antagonist project, cell-based, luminescent, enzyme-fragment complementation (AID 588359). It counts as functional.

Nonstructural protein 1, sequence (Q194T2 whole entry): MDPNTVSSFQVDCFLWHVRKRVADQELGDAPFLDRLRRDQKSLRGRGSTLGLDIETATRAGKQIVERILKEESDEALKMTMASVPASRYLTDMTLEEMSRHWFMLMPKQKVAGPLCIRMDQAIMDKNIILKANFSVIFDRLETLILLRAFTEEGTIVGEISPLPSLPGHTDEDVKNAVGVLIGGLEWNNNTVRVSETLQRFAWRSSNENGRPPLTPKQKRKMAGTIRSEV
Apelin receptor, sequence (P35414 whole entry, the tested form may be a part): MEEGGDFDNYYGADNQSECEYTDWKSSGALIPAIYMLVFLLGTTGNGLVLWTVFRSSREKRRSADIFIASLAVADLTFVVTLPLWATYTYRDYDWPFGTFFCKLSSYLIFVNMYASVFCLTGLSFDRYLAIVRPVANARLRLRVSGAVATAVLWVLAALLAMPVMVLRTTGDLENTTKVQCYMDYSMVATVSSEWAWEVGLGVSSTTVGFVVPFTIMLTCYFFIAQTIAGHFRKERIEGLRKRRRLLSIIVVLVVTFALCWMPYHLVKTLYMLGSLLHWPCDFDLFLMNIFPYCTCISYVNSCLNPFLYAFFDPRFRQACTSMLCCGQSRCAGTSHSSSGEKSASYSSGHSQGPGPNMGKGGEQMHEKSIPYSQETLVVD
Beta-galactosidase, sequence (Q8VNN2 whole entry, the tested form may be a part): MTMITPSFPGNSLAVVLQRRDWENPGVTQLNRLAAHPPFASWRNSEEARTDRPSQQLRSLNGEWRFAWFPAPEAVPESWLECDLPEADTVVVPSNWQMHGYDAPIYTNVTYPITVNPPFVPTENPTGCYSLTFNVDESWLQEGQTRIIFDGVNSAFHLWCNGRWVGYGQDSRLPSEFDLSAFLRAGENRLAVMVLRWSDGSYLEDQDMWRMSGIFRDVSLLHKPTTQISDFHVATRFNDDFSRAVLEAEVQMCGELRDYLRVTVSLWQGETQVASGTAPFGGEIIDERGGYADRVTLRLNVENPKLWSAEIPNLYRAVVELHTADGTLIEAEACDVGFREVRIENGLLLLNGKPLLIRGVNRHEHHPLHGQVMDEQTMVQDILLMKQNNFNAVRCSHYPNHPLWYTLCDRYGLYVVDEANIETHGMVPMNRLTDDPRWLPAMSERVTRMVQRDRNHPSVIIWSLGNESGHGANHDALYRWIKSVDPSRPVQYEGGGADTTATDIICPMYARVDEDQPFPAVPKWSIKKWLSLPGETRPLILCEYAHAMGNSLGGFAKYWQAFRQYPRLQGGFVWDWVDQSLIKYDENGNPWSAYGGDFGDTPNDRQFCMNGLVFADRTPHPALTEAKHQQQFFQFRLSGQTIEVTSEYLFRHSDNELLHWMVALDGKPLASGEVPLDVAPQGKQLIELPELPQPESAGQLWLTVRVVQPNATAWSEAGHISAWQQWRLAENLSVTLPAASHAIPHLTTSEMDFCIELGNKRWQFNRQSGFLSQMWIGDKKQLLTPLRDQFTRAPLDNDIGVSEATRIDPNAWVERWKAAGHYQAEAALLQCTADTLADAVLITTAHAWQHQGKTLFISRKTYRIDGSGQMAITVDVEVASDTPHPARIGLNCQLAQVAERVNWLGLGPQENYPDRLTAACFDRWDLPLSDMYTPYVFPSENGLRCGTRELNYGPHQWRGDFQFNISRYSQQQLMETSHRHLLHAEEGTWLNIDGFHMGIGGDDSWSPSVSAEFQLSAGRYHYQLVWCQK
Exodeoxyribonuclease V, sequence (P04993 whole entry): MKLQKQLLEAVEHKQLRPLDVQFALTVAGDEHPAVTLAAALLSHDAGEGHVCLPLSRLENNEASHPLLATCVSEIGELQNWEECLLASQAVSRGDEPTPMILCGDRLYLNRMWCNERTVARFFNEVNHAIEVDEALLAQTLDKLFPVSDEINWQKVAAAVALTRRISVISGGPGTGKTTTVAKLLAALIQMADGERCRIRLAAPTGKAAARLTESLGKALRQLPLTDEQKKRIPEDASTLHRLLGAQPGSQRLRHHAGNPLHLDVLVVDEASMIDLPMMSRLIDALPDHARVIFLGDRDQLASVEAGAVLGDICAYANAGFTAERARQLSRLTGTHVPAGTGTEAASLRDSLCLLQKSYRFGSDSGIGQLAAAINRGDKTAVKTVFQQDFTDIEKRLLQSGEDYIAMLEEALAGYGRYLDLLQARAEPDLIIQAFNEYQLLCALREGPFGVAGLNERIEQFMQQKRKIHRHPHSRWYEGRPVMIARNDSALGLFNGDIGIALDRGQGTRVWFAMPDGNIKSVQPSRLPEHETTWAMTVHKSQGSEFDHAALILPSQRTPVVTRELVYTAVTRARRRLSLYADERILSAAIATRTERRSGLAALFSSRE
Exodeoxyribonuclease V, sequence (P07648 whole entry): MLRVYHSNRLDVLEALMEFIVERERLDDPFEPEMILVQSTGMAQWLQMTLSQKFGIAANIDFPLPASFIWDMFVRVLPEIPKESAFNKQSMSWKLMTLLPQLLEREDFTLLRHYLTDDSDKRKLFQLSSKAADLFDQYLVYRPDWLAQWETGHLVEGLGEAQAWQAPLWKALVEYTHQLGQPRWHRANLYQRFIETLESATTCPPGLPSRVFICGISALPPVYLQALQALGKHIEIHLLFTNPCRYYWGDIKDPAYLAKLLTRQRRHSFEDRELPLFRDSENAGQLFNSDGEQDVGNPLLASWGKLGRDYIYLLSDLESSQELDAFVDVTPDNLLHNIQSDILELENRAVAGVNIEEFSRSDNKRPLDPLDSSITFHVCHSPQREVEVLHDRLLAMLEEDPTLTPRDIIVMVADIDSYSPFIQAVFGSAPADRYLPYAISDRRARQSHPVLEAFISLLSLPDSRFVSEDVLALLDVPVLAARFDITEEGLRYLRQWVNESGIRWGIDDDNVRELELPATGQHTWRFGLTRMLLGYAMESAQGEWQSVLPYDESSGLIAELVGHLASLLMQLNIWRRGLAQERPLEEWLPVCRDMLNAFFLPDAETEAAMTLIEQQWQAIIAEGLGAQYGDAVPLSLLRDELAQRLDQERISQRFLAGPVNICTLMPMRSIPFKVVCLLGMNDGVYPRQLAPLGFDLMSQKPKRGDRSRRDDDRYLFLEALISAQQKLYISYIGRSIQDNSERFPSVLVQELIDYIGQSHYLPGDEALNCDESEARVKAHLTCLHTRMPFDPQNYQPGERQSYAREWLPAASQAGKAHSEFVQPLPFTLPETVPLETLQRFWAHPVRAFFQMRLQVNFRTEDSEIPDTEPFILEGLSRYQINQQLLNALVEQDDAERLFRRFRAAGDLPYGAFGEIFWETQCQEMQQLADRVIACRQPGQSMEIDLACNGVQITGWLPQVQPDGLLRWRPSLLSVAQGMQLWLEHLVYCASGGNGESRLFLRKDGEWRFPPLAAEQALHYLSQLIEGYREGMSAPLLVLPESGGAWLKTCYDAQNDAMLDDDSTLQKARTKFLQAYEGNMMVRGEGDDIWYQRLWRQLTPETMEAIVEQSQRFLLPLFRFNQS
Exodeoxyribonuclease V, sequence (P08394 whole entry): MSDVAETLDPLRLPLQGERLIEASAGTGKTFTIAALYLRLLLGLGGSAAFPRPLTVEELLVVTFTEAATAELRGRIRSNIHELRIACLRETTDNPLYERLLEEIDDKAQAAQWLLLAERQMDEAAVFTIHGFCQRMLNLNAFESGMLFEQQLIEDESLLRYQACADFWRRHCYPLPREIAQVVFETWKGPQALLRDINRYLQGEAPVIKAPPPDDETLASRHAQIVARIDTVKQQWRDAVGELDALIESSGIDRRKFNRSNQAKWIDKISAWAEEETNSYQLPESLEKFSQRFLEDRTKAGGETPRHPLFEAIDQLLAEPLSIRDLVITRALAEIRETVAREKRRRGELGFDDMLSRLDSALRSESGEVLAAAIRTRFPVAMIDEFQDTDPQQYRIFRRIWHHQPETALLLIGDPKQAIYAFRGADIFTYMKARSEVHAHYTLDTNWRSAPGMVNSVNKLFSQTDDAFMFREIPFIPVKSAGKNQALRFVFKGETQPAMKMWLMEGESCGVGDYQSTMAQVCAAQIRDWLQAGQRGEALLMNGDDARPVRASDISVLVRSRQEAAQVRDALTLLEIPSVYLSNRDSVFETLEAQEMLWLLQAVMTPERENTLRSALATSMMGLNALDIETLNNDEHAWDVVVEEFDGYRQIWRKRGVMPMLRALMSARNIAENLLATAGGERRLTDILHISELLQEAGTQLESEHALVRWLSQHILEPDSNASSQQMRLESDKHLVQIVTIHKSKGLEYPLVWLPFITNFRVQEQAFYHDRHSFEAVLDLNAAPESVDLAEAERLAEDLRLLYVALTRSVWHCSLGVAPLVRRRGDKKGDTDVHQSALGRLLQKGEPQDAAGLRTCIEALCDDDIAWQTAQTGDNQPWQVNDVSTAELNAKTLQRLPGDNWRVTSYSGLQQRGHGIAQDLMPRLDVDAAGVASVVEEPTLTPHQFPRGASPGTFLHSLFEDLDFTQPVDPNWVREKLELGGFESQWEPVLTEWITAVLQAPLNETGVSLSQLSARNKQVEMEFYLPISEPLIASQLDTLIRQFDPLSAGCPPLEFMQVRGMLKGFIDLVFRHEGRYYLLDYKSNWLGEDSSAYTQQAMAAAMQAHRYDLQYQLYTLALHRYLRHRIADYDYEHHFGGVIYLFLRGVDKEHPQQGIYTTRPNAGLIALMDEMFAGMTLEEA

Usually IC50 stands for the concentration that gives 50% inhibition. For the compound `Cc1nn(C)c(C)c1CNC(=O)c1cc2n(n1)C(C(F)(F)F)CC(c1cccs1)N2` (stereo unspecified), the values for the IC50 in test [1] and in test [2] were 1.94 µM (active) and 1.11 µM (active), respectively.

Take `Cc1ccc(O)c(NC(=O)c2cc(-c3ccccc3Cl)on2)c1`: the IC50 in the test on CHO-K1 is > 66.3 µM (inactive); in [3] it was > 49.8 µM (inactive); in [4] it was 7.23 µM (active); in [5] it was > 49.8 µM (inactive).

Usually AC50 stands for the concentration at which the activity in the assay is half-maximal. As a reminder, the EC50 is the concentration needed to bring the measured effect to its halfway point. As for `COc1cccc(/C=N/Nc2ncnc(Cl)c2N)c1O`, the IC50 is > 119 µM (inactive) at Exodeoxyribonuclease V, 3.65 µM (active) at Nonstructural protein 1 and > 119 µM (inactive) in [7]. The AC50 in test [6] is 2.96 µM (active); with INS1, 1.02 µM (active). For the same compound, the EC50 with BJ is 1.27 µM (inconclusive).

As to `COc1ccc(NC(=O)Cc2c[nH]c3ccccc23)cc1S(=O)(=O)N1CCCCC1`, the EC50 at Hexokinase HKDC1 was > 80 µM (inactive).

For `Cc1sc2nc(SCCN(C)C)n(-c3ccccc3)c(=O)c2c1-c1ccc(F)cc1`, the AC50 in [6] is 7.17 µM (active). Besides, the IC50 on Beta-galactosidase is > 66.6 µM (inactive); at Apelin receptor, 30.9 µM (inactive).
